Assay in all cases: Post-emergence efficacy, Method A
Common to all, as to format: in vivo

Assay [1] concerns Ipomoea hederacea (IPOHE). To be noted: 500 g/Ha, 100=total damage to plant, 0=no damage, evaluated after 7 and 14 days, read-out: Control of weed species after post-emergence application, IPOHE.
For assay [2], the system named is Euphorbia heterophylla (EPHHL). To be noted: 500 g/Ha, 100=total damage to plant, 0=no damage, evaluated after 7 and 14 days, read-out: Control of weed species after post-emergence application, EPHHL.
Assay [3] has as its system Chenopodium album (CHEAL). To be noted: 500 g/Ha, 100=total damage to plant, 0=no damage, evaluated after 7 and 14 days, read-out: Control of weed species after post-emergence application, CHEAL.
Assay [4] has as its system Amaranthus palmeri (AMAPA). As to conditions: 500 g/Ha, 100=total damage to plant, 0=no damage, evaluated after 7 and 14 days, read-out: Control of weed species after post-emergence application, AMAPA.
Assay [5] has as its system Lolium perenne (LOLPE). To be noted: 500 g/Ha, 100=total damage to plant, 0=no damage, evaluated after 7 and 14 days, read-out: Control of weed species after post-emergence application, LOLPE.
In assay [6] the test system is Digitaria sanguinalis (DIGSA). To be noted: 500 g/Ha, 100=total damage to plant, 0=no damage, evaluated after 7 and 14 days, read-out: Control of weed species after post-emergence application, DIGSA.
Assay [7] has as its system Eleusine indica (ELEIN). To be noted: 500 g/Ha, 100=total damage to plant, 0=no damage, evaluated after 7 and 14 days, read-out: Control of weed species after post-emergence application, ELEIN.
In assay [8] the test system is Echinochloa crus-galli (ECHCG). To be noted: 500 g/Ha, 100=total damage to plant, 0=no damage, evaluated after 7 and 14 days, read-out: Control of weed species after post-emergence application, ECHCG.
Assay [9] concerns Setaria faberi (SETFA). To be noted: 500 g/Ha, 100=total damage to plant, 0=no damage, evaluated after 7 and 14 days, read-out: Control of weed species after post-emergence application, SETFA.

SMILES strings stand for the structures.

In the case of `O=C(O)CC[n+]1ccc(-c2nc(C(F)(F)F)ns2)c(Br)c1` [Compound A79, 3-[3-bromo-4-[3-(trifluoromethyl)-1,2,4-thiadiazol-5-yl]pyridin-1-ium-1-yl]propanoic acid acetate], the pest or weed control at 500 g/ha is 40% in assay [1]; 60% in assay [2]; 40% in assay [3]; 90% in assay [4]; 30% in assay [5]; 80% in assay [6]. Besides, the pest or weed control at 500 g/ha was determined as 90% in [7], 80% in assay [8] and 70% in assay [9].
`O=C(O)C[n+]1ccc(-c2ccsn2)cc1` [Compound A81]: the pest or weed control at 500 g/ha came out at 0% in assay [1]; 20% in assay [2]; 40% in assay [3]; 70% in assay [4]; 0% in assay [5]; 10% in assay [6]. Moreover, the pest or weed control at 500 g/ha in assay [7] worked out at 40%; in assay [8], 10%; in assay [9] it was 10%.
Turning to `O=C(O)C[n+]1ccc(-c2ncsn2)cc1` [Compound A83], the pest or weed control at 500 g/ha came out at 10% in assay [1]; 50% in assay [2]; 30% in assay [3]; 20% in assay [4]; 10% in [5]; 20% in assay [6]. Also, the pest or weed control at 500 g/ha was 10% in [7], 0% in [8] and 10% in assay [9].
On to `O=S(=O)([O-])C[n+]1ccc(-c2nccs2)cc1` [Compound A84], for which the pest or weed control at 500 g/ha in assay [1] came to 10%; in [2], 50%; in [3], 60%; in assay [4], 70%; in [5] it was 10%; in assay [6], 10%. Besides, the values for the pest or weed control at 500 g/ha in assay [7], in assay [8] and in assay [9] were 50%, 30% and 10%, respectively.
In the case of `O=S(=O)([O-])C[n+]1ccc(-c2nc(C(F)(F)F)ns2)cc1` [Compound A85], the pest or weed control at 500 g/ha in assay [1] was 100%; in assay [2] it was 100%; in assay [3], 90%; in [4], 100%; in assay [5] it was 90%; in assay [6], 100%. Further, the pest or weed control at 500 g/ha in assay [7], in [8] and in assay [9] was 100% throughout.
As for `O=C(O)C[n+]1ccc(-c2ccns2)cc1` [Compound A86], the pest or weed control at 500 g/ha in assay [1] amounted to 10%; in [2], 40%; in assay [3] it was 10%; in [4] it was 40%; in assay [5], 0%; in [6], 10%. Besides, the results for the pest or weed control at 500 g/ha in assay [7], in assay [8] and in assay [9] were 20%, 20% and 10%, respectively.
For `O=S(=O)([O-])C[n+]1ccc(-c2ccns2)cc1` [Compound A87], the pest or weed control at 500 g/ha in [1] was 0%; in [2] it was 20%; in assay [3], 10%; in assay [4], 0%; in [5], 0%; in assay [6] it was 0%. Further, the results for the pest or weed control at 500 g/ha in assay [7], in [8] and in [9] were 0%, 20% and 20%, respectively.

The values are drawn from patent US20220104493A1, “HERBICIDAL COMPOUNDS” (SYNGENTA CROP PROTECTION AG, priority 2019, published 2022).
